In US20220280422A1 (Innovation for Success, LLC, priority 2021, published 2022):

Assays:
[1] = Dissolution of melatonin in liquid glycerin; format: physicochemical; settings: at least 250 mg melatonin per milliliter glycerin
Procedure: At block 304, the method 300 includes combining melatonin with liquid glycerin, which is also termed glycerol and/or glycerine. The melatonin may be dry and/or powered, and is typically in a crystalized state. As noted above, in an exemplary embodiment, at least 250 mg of melatonin is added per milliliter of glycerin.
Next, at block 308 of the method 300, the melatonin and glycerin mixture is heated to approximately 76.6° C. (170° F.). Moreover, in some embodiments, the melatonin and glycerin mixture is stirred during the heating process.
As shown in block 404, first the method 400 includes mixing melatonin with liquid glycerin. The melatonin may be dry and/or powered, and is typically in a crystalized state. As noted above, in an exemplary embodiment, at least 250 mg of melatonin is added per milliliter of glycerin.
Next, at block 408 of the method 400, the melatonin and glycerin mixture is heated to approximately 76.6° C. (170° F.). Moreover, in some embodiments, the melatonin and glycerin mixture is stirred during the heating process.

[2] = cited from earlier work
[3] = Recrystallization of melatonin on cooling in food-grade solvents; format: physicochemical; settings: dissolved by heating then cooled
From the text: During research of the dissolvable strip 100, several food-grade solvents were identified having a sufficient solubility of melatonin including glycerin, ethanol, oleic acid, and propylene glycol. When heated, each of these solvents is capable of dissolving crystalized melatonin. […] Whereas, as noted above, glycerin incorporates well into the strip 100 at levels up to about 2% to 5%, is compatible with the lipid shell 124, and prevents recrystallization of the melatonin contained by the lipid shell 124.

[4] = target: T1, CYP1A2 (Homo sapiens, UniProt P05177); settings: in vivo; cited from earlier work
T1 sequence (P05177 1-516): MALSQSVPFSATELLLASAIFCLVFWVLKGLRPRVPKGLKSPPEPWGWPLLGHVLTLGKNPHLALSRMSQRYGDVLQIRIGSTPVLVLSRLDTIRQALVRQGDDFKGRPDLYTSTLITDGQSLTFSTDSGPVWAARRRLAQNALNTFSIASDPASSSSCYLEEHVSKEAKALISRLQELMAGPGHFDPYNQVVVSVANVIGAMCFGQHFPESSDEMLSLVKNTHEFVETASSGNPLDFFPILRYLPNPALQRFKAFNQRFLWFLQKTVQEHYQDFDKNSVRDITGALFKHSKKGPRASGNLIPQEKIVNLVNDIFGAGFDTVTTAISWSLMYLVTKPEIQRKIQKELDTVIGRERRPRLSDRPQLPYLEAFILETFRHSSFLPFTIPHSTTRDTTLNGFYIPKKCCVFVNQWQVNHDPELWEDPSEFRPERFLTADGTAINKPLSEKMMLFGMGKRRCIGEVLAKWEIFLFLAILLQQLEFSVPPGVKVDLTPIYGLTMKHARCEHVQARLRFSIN

[5] = taken orally in pill form or capsule form; cited from earlier work

SMILES	dissolution of melatonin in glycerin ([1]; heated to approximately 76.6° C. and stirred)	dissolution of melatonin in glycerin ([1]; room temperature (25° C.))	solubility in water [2]	recrystallization of melatonin when cooled ([3]; solvent ethanol)	recrystallization of melatonin when cooled ([3]; solvent liquid glycerin)	recrystallization of melatonin when cooled ([3]; solvent oleic acid)	recrystallization of melatonin when cooled ([3]; solvent propylene glycol)	melatonin in the blood removed during each pass through the liver [4]	melatonin removed from the bloodstream by liver and kidneys [4]	fraction absorbed into the body [5]
COc1ccc2[nH]cc(CCNC(C)=O)c2c1 [melatonin, N-acetyl-5-methoxy tryptamine]	all of the melatonin dissolves	only a portion of the melatonin dissolves	only slightly soluble in water	recrystallized	recrystallized in each of the solvents except for the liquid glycerin	recrystallized	recrystallized	30%-50%	30-50%	
COc1ccc2[nH]cc(CCNC(C)=O)c2c1 [non-solubilized melatonin]										about 15%
